According to paper PMC4183655, “Discovery and Optimization of Small-Molecule Ligands for the CBP/p300 Bromodomains” (Journal of the American Chemical Society, 2014):
Read-outs that look alike come from different tables or passages of the source.

How the values were obtained:
[1] = target: T1, BRD9 (Homo sapiens, UniProt Q9H8M2); experiment: DSF (ΔTm) selectivity panel; format: binding; details: compound 10 µM
T1 construct: using recombinant BRDs as surrogates of full-length protein
T1 sequence (Q9H8M2 136-240 limits assumed): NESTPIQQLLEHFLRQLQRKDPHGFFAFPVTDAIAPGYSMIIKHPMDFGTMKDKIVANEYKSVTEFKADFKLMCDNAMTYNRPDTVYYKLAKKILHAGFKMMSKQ

[2] = target: T2, CBP (Homo sapiens, UniProt Q92793); experiment: DSF (ΔTm) thermal stability assay; format: binding; details: compound concentration 10 μM; mean ± SEM (number of measurements)
T2 sequence (Q92793 1085-1192 limits assumed): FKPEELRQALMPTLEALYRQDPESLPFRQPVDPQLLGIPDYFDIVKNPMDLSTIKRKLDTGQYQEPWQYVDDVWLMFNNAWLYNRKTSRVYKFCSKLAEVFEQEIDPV

[3] = target: T1, BRD9; experiment: Peptide displacement AlphaScreen; format: binding
[4] = target: T3, BRD4(1) (Homo sapiens, UniProt O60885); experiment: Peptide displacement AlphaScreen; format: binding
[5] = target: T3, BRD4(1); experiment: DSF (ΔTm) thermal stability assay; format: binding; details: compound concentration 10 μM; mean ± SEM (number of measurements)
[6] = target: T2, CBP; experiment: Peptide displacement AlphaScreen; format: binding; details: read-out: AlphaScreen IC50 CBP
[7] = target: T4, p300 (Homo sapiens, UniProt Q09472); experiment: Isothermal titration calorimetry (ITC)
T4 sequence (Q09472 1049-1156 limits assumed): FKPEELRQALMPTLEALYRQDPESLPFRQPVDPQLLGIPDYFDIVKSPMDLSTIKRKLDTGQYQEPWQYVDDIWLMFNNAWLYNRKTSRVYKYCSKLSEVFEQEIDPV

[8] = target: T3, BRD4(1); experiment: Isothermal titration calorimetry (ITC)
[9] = target: T5, CECR2 (Homo sapiens, UniProt Q9BXF3); experiment: Peptide displacement AlphaScreen; format: binding
T5 construct: using recombinant BRDs as surrogates of full-length protein
T5 sequence (Q9BXF3 434-538 limits assumed): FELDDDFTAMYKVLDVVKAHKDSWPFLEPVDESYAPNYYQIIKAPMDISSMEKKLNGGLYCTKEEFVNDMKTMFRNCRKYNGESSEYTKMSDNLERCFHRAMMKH

[10] = target: T5, CECR2; experiment: DSF (ΔTm) selectivity panel; format: binding; details: compound 10 µM
[11] = target: T2, CBP; experiment: Isothermal titration calorimetry (ITC)
[12] = target: T4, p300; experiment: Peptide displacement AlphaScreen; format: binding
[13] = target: T4, p300; experiment: DSF (ΔTm) thermal stability assay; format: binding; details: compound 10 µM
[14] = target: T6, BAZ2A (Homo sapiens, UniProt Q9UIF9); experiment: DSF (ΔTm) thermal stability assay; format: binding; details: compound 10 µM
T6 construct: using recombinant BRDs as surrogates of full-length protein
T6 sequence (Q9UIF9 1793-1897 limits assumed): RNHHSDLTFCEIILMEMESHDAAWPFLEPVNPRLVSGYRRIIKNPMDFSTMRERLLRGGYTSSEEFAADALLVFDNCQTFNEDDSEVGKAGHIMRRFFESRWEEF

[15] = target: T7, ATAD2 (Homo sapiens, UniProt Q6PL18); experiment: DSF (ΔTm) thermal stability assay; format: binding; details: compound 10 µM
T7 construct: using recombinant BRDs as surrogates of full-length protein
T7 sequence (Q6PL18 980-1092 limits assumed): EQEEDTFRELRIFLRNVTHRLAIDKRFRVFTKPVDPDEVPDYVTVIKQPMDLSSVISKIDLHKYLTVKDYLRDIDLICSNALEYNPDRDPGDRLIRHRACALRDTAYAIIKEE

[16] = target: T7, ATAD2; experiment: Peptide displacement AlphaScreen; format: binding
[17] = target: T6, BAZ2A; experiment: Peptide displacement AlphaScreen; format: binding
[18] = target: T8, BRD2(1) (Homo sapiens, UniProt P25440); experiment: DSF (ΔTm) selectivity panel; format: binding; details: compound 10 µM
T8 construct: using recombinant BRDs as surrogates of full-length protein
T8 sequence (P25440 74-180 limits assumed): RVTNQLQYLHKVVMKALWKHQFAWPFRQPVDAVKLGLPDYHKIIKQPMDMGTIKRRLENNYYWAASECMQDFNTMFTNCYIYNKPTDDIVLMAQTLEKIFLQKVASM

[19] = target: T9, alpha 2C (h) (Homo sapiens, UniProt P18825); experiment: Cerep profiling, antagonist radioligand; format: binding
T9 construct: CEREP (BioPrint Full Panel, contract assay)
T9 sequence (P18825 whole entry): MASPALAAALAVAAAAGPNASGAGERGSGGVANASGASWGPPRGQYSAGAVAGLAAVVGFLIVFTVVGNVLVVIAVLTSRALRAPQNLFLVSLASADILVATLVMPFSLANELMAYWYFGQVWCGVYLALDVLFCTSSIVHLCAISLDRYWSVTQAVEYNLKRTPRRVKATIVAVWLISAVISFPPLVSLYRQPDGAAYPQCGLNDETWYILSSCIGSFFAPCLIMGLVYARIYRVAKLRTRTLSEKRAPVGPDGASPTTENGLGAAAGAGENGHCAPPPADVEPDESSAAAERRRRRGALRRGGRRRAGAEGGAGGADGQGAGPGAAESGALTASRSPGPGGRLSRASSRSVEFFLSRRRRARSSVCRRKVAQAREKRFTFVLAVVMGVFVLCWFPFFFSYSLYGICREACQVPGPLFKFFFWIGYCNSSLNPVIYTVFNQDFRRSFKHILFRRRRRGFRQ

[20] = Cytotoxicity assay; details: human, U2OS osteosarcoma cells
[21] = system: p53-driven luciferase activity in RKO cells; experiment: p53 luciferase reporter assay; format: cell-based, human; details: compound 24 h then doxorubicin 0.3 μM 16 h, read-out: Inhibition of doxorubicin-induced p53-driven luciferase activity IC50
Description: Refinement was carried out in
refinement cycles. […] The
Cell culture and reagents
Fluorescence Recovery After Photobleaching (FRAP) Assay
In brief RKO cells were transfected with
well plate format using Fugene HD (Roche).
Compounds were dissolved in dimethyl sulfoxide
5 ul of compound solution was added
mixing plates returned to the incubator.

[22] = target: T10, alpha 2A (h) (Homo sapiens, UniProt P08913); experiment: Cerep profiling, antagonist radioligand; format: binding
T10 construct: CEREP (BioPrint Full Panel, contract assay)
T10 sequence (P08913 whole entry): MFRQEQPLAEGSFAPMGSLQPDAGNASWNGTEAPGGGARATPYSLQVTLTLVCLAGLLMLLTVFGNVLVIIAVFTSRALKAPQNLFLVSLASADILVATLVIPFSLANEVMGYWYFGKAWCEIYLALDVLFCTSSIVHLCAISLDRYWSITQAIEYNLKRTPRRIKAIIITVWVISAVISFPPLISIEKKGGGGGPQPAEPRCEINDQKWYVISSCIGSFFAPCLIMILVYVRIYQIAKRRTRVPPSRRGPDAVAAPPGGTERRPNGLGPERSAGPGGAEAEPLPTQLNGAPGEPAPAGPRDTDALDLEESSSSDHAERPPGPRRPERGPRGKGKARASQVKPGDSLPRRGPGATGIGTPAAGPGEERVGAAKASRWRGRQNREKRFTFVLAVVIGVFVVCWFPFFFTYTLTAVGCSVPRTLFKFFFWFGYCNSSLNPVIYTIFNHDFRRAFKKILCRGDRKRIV

[23] = Human liver microsome (HLM) stability assay; format: in vitro ADME; details: microsomes, 1 h
[24] = target: PAF (h) (Homo sapiens, UniProt P25105); experiment: Cerep profiling, agonist radioligand
Chain of PAF (h) (P25105 whole entry): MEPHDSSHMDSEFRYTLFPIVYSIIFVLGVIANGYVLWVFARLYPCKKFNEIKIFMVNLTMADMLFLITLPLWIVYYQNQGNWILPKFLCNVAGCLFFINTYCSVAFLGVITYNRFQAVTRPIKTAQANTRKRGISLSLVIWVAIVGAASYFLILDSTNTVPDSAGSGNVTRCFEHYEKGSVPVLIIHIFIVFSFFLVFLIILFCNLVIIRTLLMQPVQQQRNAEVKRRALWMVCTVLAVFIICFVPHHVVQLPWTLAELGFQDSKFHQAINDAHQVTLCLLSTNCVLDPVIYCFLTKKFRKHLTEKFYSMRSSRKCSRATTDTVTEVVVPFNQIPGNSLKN

[25] = target: T11, PDE5 (h) (non-selective) (Homo sapiens, UniProt O76074); experiment: Cerep profiling; format: biochemical
T11 construct: CEREP (BioPrint Full Panel, contract assay)

[26] = system: GFP-tagged 3 × CBP BRD construct; experiment: Fluorescence recovery after photo-bleaching (FRAP) assay; details: HeLa cells, SAHA-treated, compound 0.1 μM
[27] = target: T12, BRD3(1) (Homo sapiens, UniProt Q15059); experiment: DSF (ΔTm) selectivity panel; format: binding; details: compound 10 µM
T12 construct: using recombinant BRDs as surrogates of full-length protein
T12 sequence (Q15059 34-140 limits assumed): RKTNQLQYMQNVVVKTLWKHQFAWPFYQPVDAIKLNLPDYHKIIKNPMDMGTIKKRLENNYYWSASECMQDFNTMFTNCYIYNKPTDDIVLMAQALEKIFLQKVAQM

For Cc1noc(C)c1-c1ccc2c(c1)nc(CCc1ccccc1)n2CCN1CCCC1 [Compound 15], the ΔTm at 10 µM [1] was 1.5 °C, the ΔTm at 10 µM [2] was 5.4 °C and the IC50 [3] was 100000 nM. The IC50 [4] was 9100 nM, the ΔTm at 10 µM [5] was 2.7 °C and the IC50 [6] was 840 nM.
In the case of Cc1noc(C)c1-c1ccc2c(c1)nc(CCc1ccccc1)n2CCN1CCCCC1 [Compound 16], the “ITC N (molar binding ratio of the ligand-protein interaction), p300” value [7] is reported as 1.00 ± 0.0028, the “ITC ∆G, p300” value [7] is reported as -8.60 kcal/mol and the “ITC ∆H, p300” value [7] is reported as -6.09 ± 0.0245 kcal/mol. For the same compound, the Kd [7] was 347 nM, the “ITC 9T∆S, p300” value ([7]; At T = 298.15 K) was -2.51 kcal/mol and the “ITC N (molar binding ratio of the ligand-protein interaction), BRD4(1)” value [8] was 1.10 ± 0.005. The “ITC ∆G, BRD4(1)” value [8] was -8.01 kcal/mol, the “ITC ∆H, BRD4(1)” value [8] was -5.86 ± 0.0338 kcal/mol and the “ITC 9T∆S, BRD4(1)” value ([8]; At T = 298.15 K) was -2.15 kcal/mol. The Kd ([8]; ITC Ka, BRD4(1)) was 952 nM, the ΔTm at 10 µM [2] was 6.5 °C and the IC50 [9] was 12000 nM. The ΔTm at 10 µM [10] was 1 °C, the “ITC N (molar binding ratio of the ligand-protein interaction), CBP” value [11] was 1.00 ± 0.00223 and the “ITC ∆G, CBP” value [11] was -8.66 kcal/mol. The “ITC ∆H, CBP” value [11] was -5.76 ± 0.0184 kcal/mol, the “ITC 9T∆S, CBP” value ([11]; At T = 298.15 K) was -2.90 kcal/mol and the Kd ([11]; ITC Ka, CBP) was 323 nM. The IC50 [3] was > 25000 nM, the IC50 [4] was 2400 nM and the IC50 [12] was 140 nM. The ΔTm at 10 µM [13] was 7.9 °C, the ΔTm at 10 µM [5] was 2.7 °C and the IC50 [6] was 180 nM.
For Cc1noc(C)c1-c1ccc2c(c1)nc(CCc1ccccc1)n2CCN1CCN(C)CC1 [Compound 18], the ΔTm at 10 µM [2] was 2 °C, the ΔTm at 10 µM [14] was -0.52 °C and the IC50 [4] was 4100 nM. For the same compound, the ΔTm at 10 µM [15] was 0.03 °C, the IC50 [16] was 19000 nM and the ΔTm at 10 µM [5] was 1.2 °C. For the same compound, the IC50 [6] was 2000 nM and the IC50 [17] was 14000 nM.
Work on COc1ccc(CCc2nc3cc(-c4c(C)noc4C)ccc3n2C[C@H](C)N2CCOCC2)cc1Cl [Compound 59] yielded a ΔTm at 10 µM [18] of 1 to 2 °C, an IC50 [19] of 110 nM and a CC50 at 24 h [20] of 80000 nM. The CC50 at 72 h [20] was 8100 nM, the IC50 ([21]; Homo sapiens, RKO) was 1540 nM and the IC50 [21] was 1500 nM. For the same compound, the IC50 [22] was 570 nM, the “HLM stability: compound detected after 60 min” value [23] was “no compound was detected” and the IC50 [24] was 540 nM. For the same compound, the ΔTm at 10 µM [5] was 1 to 2 °C, the IC50 [25] was 150 nM and the “FRAP half-time of fluorescence recovery (t1/2), GFP-tagged 3× CBP BRD” value [26] was 0.60 s. The ΔTm at 10 µM [27] was 1 to 2 °C.
